Assay results reported in US12410160B2 (Gilead Sciences, Inc., priority 2021, dated 2025).
Like-named read-outs stand apart in the source and are kept apart here.

What was measured:
human KHK-C = human KHK-C (Homo sapiens (Human), UniProt P50053); test: KHK Biochemical Assay (IC50), ADP-Glo, KHK-C; conditions: average of at least two separate assays
Summary of the method: (§1)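 His-tagged enzyme expressed in BL21 (DE3), Ni-NTA purified. Compounds, serially diluted 1:3 in DMSO, pre-incubated 30 min with enzyme in 50 mM Hepes pH 7.4, 140 mM KCl, 5 mM MgCl2, 0.01% Triton-X, then ATP and fructose added; 4 h at room temperature. ADP formation read by ADP-Glo luminescence.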

[1] = target: KHK-C expressed in NRK-52E cells (Homo sapiens (Human), UniProt P50053); test: KHK-C Cell-based Assay (EC50), NRK CTG, fructose-mediated ATP-depletion
Sequence of KHK-C expressed in NRK-52E cells (P50053 whole entry): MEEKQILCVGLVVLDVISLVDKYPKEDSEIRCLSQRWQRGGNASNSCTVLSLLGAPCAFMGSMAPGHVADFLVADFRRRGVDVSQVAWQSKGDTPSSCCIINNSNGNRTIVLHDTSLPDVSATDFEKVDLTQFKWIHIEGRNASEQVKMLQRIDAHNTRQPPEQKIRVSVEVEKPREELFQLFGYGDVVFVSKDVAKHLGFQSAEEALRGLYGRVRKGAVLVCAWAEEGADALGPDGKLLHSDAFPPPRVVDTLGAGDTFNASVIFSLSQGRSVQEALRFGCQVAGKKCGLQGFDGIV
Method: Compounds were tested in a high-throughput 384-well assay format for their ability to attenuate fructose-mediated ATP-depletion in Normal Rat Kidney epithelial cells (NRK-52E) using the Cell-Titer Glo (CTG) assay, which measures cellular ATP levels based on luminescence signal by using the luciferase-luciferin system. Compounds were serially diluted (1:3) in DMSO.
The plates were incubated at 37° C., 5% CO2 for one day. Cells were then transduced on day 2 with 200 MOI of Adenovirus (VQAd KHKC C-(K)-DYK ViraQuest Inc.) using the same medium and method as day-1 to induce KHK-C expression in the cells. Cells were incubated at 37° C., 5% CO2 for one day. On day-3, the medium was changed to DMEM medium (Corning, Catalog #10-014-CM) with 0.5% FBS and Penicillin-Streptomycin after washing the cells twice with sterile PBS on the BioTEK EL406 washer and dispenser. Test compounds were then diluted 200-fold into the assay plates using the BioMek FX and were incubated for 1 hour at 37° C., 5% CO2. 25 mM (final concentration) of fructose was then dispensed into the plates using the BioTEK EL406 dispenser and the plates were incubated at 37° C., 5% CO2 for 48 hours before addition of CTG reagent and measurement of luminescence signal.

human OATP1B1 = human OATP1B1 (Homo sapiens (Human), UniProt Q9Y6L6); test: In Vitro Inhibition Assessment with Human OATP1B1 Transporter; assay type: in vitro ADME; conditions: HEK293-OATP1B1 cells, probe substrate pravastatin
Sequence of human OATP1B1 (Q9Y6L6 whole entry): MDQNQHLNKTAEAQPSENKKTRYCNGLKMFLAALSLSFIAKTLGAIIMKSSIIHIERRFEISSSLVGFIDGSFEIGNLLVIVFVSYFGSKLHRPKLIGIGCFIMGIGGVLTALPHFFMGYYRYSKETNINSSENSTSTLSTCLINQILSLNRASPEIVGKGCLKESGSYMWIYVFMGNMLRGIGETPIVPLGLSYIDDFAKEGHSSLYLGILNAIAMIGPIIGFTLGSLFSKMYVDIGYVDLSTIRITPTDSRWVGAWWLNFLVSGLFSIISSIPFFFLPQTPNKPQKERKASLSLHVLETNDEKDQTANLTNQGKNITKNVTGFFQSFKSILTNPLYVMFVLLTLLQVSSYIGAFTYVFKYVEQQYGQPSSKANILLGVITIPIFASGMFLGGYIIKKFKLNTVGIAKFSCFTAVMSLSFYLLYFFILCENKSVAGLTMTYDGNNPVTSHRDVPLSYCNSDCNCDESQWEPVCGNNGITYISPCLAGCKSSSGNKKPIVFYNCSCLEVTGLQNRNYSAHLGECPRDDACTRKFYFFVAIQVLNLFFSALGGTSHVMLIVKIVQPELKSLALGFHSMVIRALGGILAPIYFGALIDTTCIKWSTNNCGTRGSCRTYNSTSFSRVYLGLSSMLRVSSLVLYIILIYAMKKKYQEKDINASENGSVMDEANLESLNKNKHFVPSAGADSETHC
Method: In Vitro Inhibition Assessment with Human OATP1B1 and OATP1B3 Transporters Assay Protocol
The purpose of this assay was to assess the inhibition potential of test article (TA) toward human OATP1B1 and OATP1B3 transporters in vitro using cell lines transfected with the individual transporters. The assays used clinically relevant probe substrate pravastatin and a known positive control inhibitor rifampicin. HEK293 mock, HEK293-OATP1B1, and HEK293-OATP1B3 transfected cells were seeded onto CellCoat Poly-D-Lysine coated 96 well black cell culture plates with clear bottoms (Greiner bio-one, Cat. #655946) at a density of 70,000 cells/well and cultured to confluency overnight. Seeding media used was Dulbecco's Modification of Eagle's Medium (DMEM—with GlutaMAX high glucose; Gibco, Cat #: 10569-010) supplemented with 10% fetal bovine serum, 0.1 mM non-essential amino acids, 100 U/mL penicillin, and 100 μg/mL streptomycin. On assay day, media were removed from the assay plates and cells were washed with Hanks' Balanced Salt Solution (HBSS Buffer) (Corning, Cat. #21-023-CV). All TAs and reference inhibitor were serially diluted in DMSO to create spiking solutions at concentrations of 250-fold of final assay concentrations (final DMSO content 0.4%). Cells were preincubated with HBSS buffer containing test compounds for 15 minutes. After the removal of HBSS buffer, dose solution containing TA or reference inhibitor and probe substrate were added to the HEK293-OATP1B1, HEK-293-OATP1B3 and its associated mock cell plate, respectively. The co-incubation period of TAs with the corresponding probe substrate for all plates was 5 minutes. An aliquot of the dose solution was removed from the HEK293 mock cell plates and analysed for dose recovery. Cells were then washed three times with ice cold HBSS buffer and then immediately extracted with methanol:water (70:30 v:v) containing internal standard labetolol (30 nM). The supernatants were evaporated to dryness on injection plates and reconstituted in 80% water containing 20% acetonitrile and 0.1% formic acid for analysis by liquid chromatography with tandem mass spectrometry (LC-MS-MS).
Fractional transport activities were calculated from the equation: Activity %=(A−B)/(C−D)×100
• A: translocated amount of substrate in the presence of TA on transfected cells • B: translocated amount of substrate in the presence of TA on Mock cells • C: translocated amount of substrate in the presence of solvent on transfected cells • D: translocated amount of substrate in the presence of solvent on Mock cells
GraphPad Prism 7.0 (GraphPad Software Inc., San Diego, CA) was used for curve fitting and determination of reaction parameters. In uptake transporter inhibition assays, the IC50 (μM) was calculated, where applicable. IC50 was defined as the concentration of TA required to inhibit maximal activity by 50%.

HepG2 cells = test: F1P Cell-Based Assay (EC50), 13C6-fructose-1-phosphate in HepG2 cells (cell culture medium or 50% human plasma); conditions: Homo sapiens
human KHK-A = human KHK-A (Homo sapiens (Human), UniProt P50053); test: KHK Biochemical Assay (IC50), ADP-Glo, KHK-A; conditions: average of at least two separate assays
Sequence of human KHK-A (P50053 other isoform, or with tags, fused parts or gaps): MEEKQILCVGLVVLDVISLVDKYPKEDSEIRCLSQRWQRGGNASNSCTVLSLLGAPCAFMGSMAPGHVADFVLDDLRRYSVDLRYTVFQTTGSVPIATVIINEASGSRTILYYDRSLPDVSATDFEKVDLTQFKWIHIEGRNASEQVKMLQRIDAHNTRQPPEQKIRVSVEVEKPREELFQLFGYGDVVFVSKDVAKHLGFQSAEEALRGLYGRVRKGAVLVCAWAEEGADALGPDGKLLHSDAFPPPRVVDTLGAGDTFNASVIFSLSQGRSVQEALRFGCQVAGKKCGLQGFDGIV
Summary of the method: as §1

[2] = HepG2, HepG2 cells, 50% human plasma, read-out: F1P 50% HP EC50
[3] = HepG2, read-out: F1P 10% FBS EC50, HepG2 cells, cell culture medium (10% FBS)

Sequence of human KHK-C (P50053 whole entry): as the sequence (P50053 whole entry) above

Compound | IC50 (human KHK-C) [µM] | EC50 [1] [µM] | IC50 (human OATP1B1) [µM] | EC50 (HepG2 cells; [2]) [µM] | EC50 (HepG2 cells; [3]) [µM] | IC50 (human KHK-A; ADP-Glo) [µM] | IC50 (human KHK-C; ADP-Glo) [µM] | IC50 (human KHK-A) [µM]
C[C@H]1[C@H](O)CN1c1nc(-c2ccc3c(c2)O[C@H](CO)CNC3=O)c2c(n1)C(F)(F)CC2 [Example 705, (S)-8-(7,7-difluoro-2-((2S,3R)-3-hydroxy-2-methylazetidin-1-yl)-6,7-dihydro-5H-cyclopenta[d]pyrimidin-4-yl)-2-(hydroxymethyl)-3,4-dihydrobenzo[f][1,4]oxazepin-5(2H)-one] | 0.0032 | 0.63 | 8.91 | 0.0552 | 0.0524 | – | – | –
C[C@H]1CCN1c1nc2c(c(-c3cccc(C(=O)O)c3)n1)CCC2 [Example 9, (S)-3-(2-(2-methylazetidin-1-yl)-6,7-dihydro-5H-cyclopenta[d]pyrimidin-4-yl)benzoic acid] | – | 0.611 | 0.448 | – | – | 0.0489 | 0.0686 | –
C[C@H]1CCN1c1nc2c(c(-c3ccc4c(=O)[nH]cc(S(N)(=O)=O)c4c3)n1)CCC2 [Example 433, 6-[2-[(2S)-2-methylazetidin-1-yl]-6,7-dihydro-5H-cyclopenta[d]pyrimidin-4-yl]-1-oxo-2H-isoquinoline-4-sulfonamide] | 0.0063 | 0.484 | 0.967 | – | – | – | – | 0.0272
C[C@H]1[C@H](O)CN1c1nc(-c2cc3cc[nH]c(=O)c3s2)c2c(n1)C(F)(F)CC2 [Example 643, 2-[7,7-difluoro-2-[(2S,3R)-3-hydroxy-2-methyl-azetidin-1-yl]-5,6-dihydrocyclopenta[d]pyrimidin-4-yl]-6H-thieno[2,3-c]pyridin-7-one] | 0.0026 | 0.0708 | 0.798 | – | – | – | – | –
C[C@H]1CCN1c1nc2c(c(-c3cc4c(N)nccc4s3)n1)CCC2 [Example 446, 2-[2-[(2S)-2-methylazetidin-1-yl]-6,7-dihydro-5H-cyclopenta[d]pyrimidin-4-yl]thieno[3,2-c]pyridin-4-amine] | 0.0034 | 0.005 | 1.81 | – | – | – | – | –
C[C@H]1CCN1c1nc2c(c(-c3ccc4c(=O)[nH]ncc4c3)n1)CCC2 [Example 427, 6-[2-[(2S)-2-methylazetidin-1-yl]-6,7-dihydro-5H-cyclopenta[d]pyrimidin-4-yl]-2H-phthalazin-1-one] | 0.0302 | 0.0402 | 0.21 | – | – | – | – | 0.0178
C[C@H]1[C@H](O)CN1c1nc2c(c(-c3ccc4c(N)nccc4c3)n1)CCC2 [Example 385, (2S,3R)-1-[4-(1-amino-6-isoquinolyl)-6,7-dihydro-5H-cyclopenta[d]pyrimidin-2-yl]-2-methyl-azetidin-3-ol] | – | 0.0042 | 0.687 | 0.0111 | 0.0065 | – | – | –
C[C@H]1CCN1c1nc2c(c(-c3ccc4c(=O)[nH]cnc4c3)n1)CCC2 [Example 383, 7-[2-[(2S)-2-methylazetidin-1-yl]-6,7-dihydro-5H-cyclopenta[d]pyrimidin-4-yl]-3H-quinazolin-4-one] | – | 0.0073 | 0.194 | – | – | 0.0108 | 0.0044 | –
C[C@H]1[C@H](O)CN1c1nc2c(c(-c3cc4cc[nH]c(=O)c4s3)n1)CCC2 [Example 450, 2-[2-[(2S,3R)-3-hydroxy-2-methyl-azetidin-1-yl]-6,7-dihydro-5H-cyclopenta[d]pyrimidin-4-yl]-6H-thieno[2,3-c]pyridin-7-one] | 0.0093 | 0.298 | 0.992 | – | – | – | – | –
C[C@H]1[C@H](O)CN1c1nc(-c2cccc(S(N)(=O)=O)c2)c2c(n1)C(F)(F)CC2 [Example 322, 3-(7,7-difluoro-2-((2S,3R)-3-hydroxy-2-methylazetidin-1-yl)-6,7-dihydro-5H-cyclopenta[d]pyrimidin-4-yl)benzenesulfonamide] | – | 0.0764 | 13.3 | – | – | 0.0051 | 0.0074 | –
C[C@H]1[C@H](O)CN1c1nc2c(c(-c3ccc(C4(N)COC4)cc3)n1)CCC2 [Example 159, (2S,3R)-1-(4-(4-(3-aminooxetan-3-yl)phenyl)-6,7-dihydro-5H-cyclopenta[d]pyrimidin-2-yl)-2-methylazetidin-3-ol] | – | 0.0369 | 7.4 | – | – | 0.0256 | 0.0101 | –
C[C@H]1[C@H](O)CN1c1nc(-c2ccc(C3(O)CS(=O)(=O)C3)cc2)c2c(n1)C(F)(F)CC2 [Example 735] | 0.0065 | 0.0521 | 2.87 | – | – | – | – | –
C[C@H]1CCN1c1nc2c(c(-c3cc(F)c4c(=O)[nH]ccc4c3)n1)CCC2 [Example 382, 8-fluoro-6-[2-[(2S)-2-methylazetidin-1-yl]-6,7-dihydro-5H-cyclopenta[d]pyrimidin-4-yl]-2H-isoquinolin-1-one] | – | 0.0138 | 0.149 | – | – | 0.0161 | 0.0063 | –
C[C@H]1[C@H](O)CN1c1nc(-c2ccc(S(C)(=N)=O)cc2)c2c(n1)C(F)(F)CC2 (stereo partly drawn) [Example 715, (4-(7,7-difluoro-2-((2S,3R)-3-hydroxy-2-methylazetidin-1-yl)-6,7-dihydro-5H-cyclopenta[d]pyrimidin-4-yl)phenyl)(imino)(methyl)-λ^6-sulfanone] | 0.0352 | 0.258 | 30.5 | – | – | – | – | –
C[C@H]1[C@H](O)CN1c1nc(-c2ccc3c(c2)S(=O)(=O)NC3)c2c(n1)C(F)(F)CC2 [Example 598] | 0.0024 | 0.0157 | 3.14 | – | – | – | – | –
C[C@H]1[C@H](O)CN1c1nc(-c2ccc(C(N)=O)c(OC(F)F)c2)c2c(n1)C(F)(F)CC2 [Example 182, 4-(7,7-difluoro-2-((2S,3R)-3-hydroxy-2-methylazetidin-1-yl)-6,7-dihydro-5H-cyclopenta[d]pyrimidin-4-yl)-2-(difluoromethoxy)benzamide] | – | 0.156 | 2.84 | – | – | – | 0.0102 | –
C[C@H]1[C@H](O)CN1c1nc(-c2cnc3c(c2)OCCNC3=O)c2c(n1)C(F)(F)CC2 [Example 599] | 0.0203 | 4.9 | 4.38 | – | – | – | – | –
C[C@H]1[C@H](O)CN1c1nc2c(c(-c3cccc(CNS(C)(=O)=O)c3)n1)CCC2 [Example 285] | – | 0.0824 | 1.26 | – | – | 0.0572 | 0.0478 | –
C[C@H]1[C@H](O)CN1c1nc2c(c(-c3ccc4c(=O)[nH]ccc4c3)n1)CCC2 [Example 373, 6-[2-[(2S,3R)-3-hydroxy-2-methyl-azetidin-1-yl]-6,7-dihydro-5H-cyclopenta[d]pyrimidin-4-yl]-2H-isoquinolin-1-one] | – | 0.0538 | 0.379 | – | – | 0.054 | 0.0204 | –
C[C@H]1CCN1c1nc(-c2ccc3c(=O)[nH]ccc3c2)c2c(n1)C(F)(F)CC2 [Example 317, (S)-6-(7,7-difluoro-2-(2-methylazetidin-1-yl)-6,7-dihydro-5H-cyclopenta[d]pyrimidin-4-yl)isoquinolin-1(2H)-one] | – | 0.0035 | 0.284 | – | – | 0.0049 | 0.0017 | –
C[C@H]1CCN1c1nc2c(c(-c3cccc(CCC(=O)O)c3)n1)CCC2 [Example 4, (S)-3-(3-(2-(2-methylazetidin-1-yl)-6,7-dihydro-5H-cyclopenta[d]pyrimidin-4-yl)phenyl)propanoic acid] | – | 0.31 | 0.928 | – | – | 0.0414 | 0.0461 | –
